Our source for the IC50 values is BindingDB's records for patent US20250034135 (Hangzhou Healzen Therapeutics Co., 2025).

In data set [1] the target is Apoptosis regulator Bcl-2 (Homo sapiens, UniProt P10415). The data set is described as follows: Molecular Level Activity Test of Anti-Apoptotic Protein BCL2. The procedure: (§1) The detection of the binding ability between anti-apoptotic protein BCL2 and pro-apoptotic protein Bim was performed using Homogeneous Time-Resolved Fluorescence technology. The reaction of this method occurred in a white shallow 384-well plate, with a total reaction volume of 10 μL. Specifically, it included 2 μL of the compound to be tested (2% DMSO), 4 μL His-tagged recombinant protein, and 4 μL Biotin-tagged BIM protein peptide. After 1 hour of reaction, 5 μL of each Anti-His and streptavidin-tagged XL665 antibody diluents diluted with a detection buffer were added. After incubating at room temperature for 4 hours, the values were read using the Envision multifunctional microplate reader to detect the effect of the compound to be tested on the binding ability of BCL2 to Bim protein peptides. The Envision parameter settings were exciting light at 320 nm, and emitting light at 615 nm and 665 nm. The binding ability of anti-apoptotic proteins to Bim protein peptides was indirectly reflected by the signal ratio of 665 nm and 615 nm. In the reaction, background wells without BCL2 and active wells for full binding of recombinant proteins without compounds and Bim protein peptides were set up.

The target in data set [2] is Apoptosis regulator Bcl-2 [G101V] (Homo sapiens, UniProt P10415, G101V). The data set is described as follows: Molecular Level Activity Test of Anti-Apoptotic Protein BCL2 (G101V). As for the experimental part:
as §1, with “protein BCL2 (G101V) and pro-apoptotic” for “protein BCL2 and pro-apoptotic”, “reaction, 5 L of each” for “reaction, 5 μL of each”, “of BCL2 (G101V) to BIM” for “of BCL2 to Bim”, “(G101V) to BIM protein peptides.” for “BCL2 to Bim protein peptides.”

For data set [3], the target named is Isoform Bcl-X(L) of Bcl-2-like protein 1 (Bcl-xL) (Homo sapiens, UniProt Q07817). Briefly: BCL-XL Enzyme Molecular Level Activity Test. The procedure: as §1, with “In a white” for “The detection of the binding ability between anti-apoptotic protein BCL2 and pro-apoptotic protein Bim was performed using Homogeneous Time-Resolved Fluorescence technology. The reaction of this method occurred in a white”, “384-well plate, a total” for “384-well plate, with a total”, “reaction volume was 10 μL.” for “reaction volume of 10 μL.”, “DMSO), […] His-tagged recombinant” for “DMSO), 4 μL His-tagged recombinant”, “ability of BCL-XL to BIM” for “ability of BCL2 to Bim”, “BCL-XL to BIM protein peptides.” for “BCL2 to Bim protein peptides.”
Chain of Isoform Bcl-X(L) of Bcl-2-like protein 1 (Bcl-xL) (Q07817 whole entry G70A, canonical isoform): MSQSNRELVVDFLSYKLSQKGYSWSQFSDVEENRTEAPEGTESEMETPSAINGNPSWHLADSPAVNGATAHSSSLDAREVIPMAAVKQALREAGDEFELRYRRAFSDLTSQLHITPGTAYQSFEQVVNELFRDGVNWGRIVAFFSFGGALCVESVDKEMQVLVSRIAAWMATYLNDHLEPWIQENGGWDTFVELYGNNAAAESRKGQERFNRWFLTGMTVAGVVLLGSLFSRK

In data set [4] the target is CYP3A4 (Homo sapiens, UniProt P08684). Briefly: CYP3A4 Enzyme Inhibitory Activity. The conditions noted are these: recombinant CYP3A4 (CYP450 BACULOSOMES Plus reagent), probe Vivid substrate (Vivid CYP3A4 Green kit).
Chain of CYP3A4 (P08684 whole entry): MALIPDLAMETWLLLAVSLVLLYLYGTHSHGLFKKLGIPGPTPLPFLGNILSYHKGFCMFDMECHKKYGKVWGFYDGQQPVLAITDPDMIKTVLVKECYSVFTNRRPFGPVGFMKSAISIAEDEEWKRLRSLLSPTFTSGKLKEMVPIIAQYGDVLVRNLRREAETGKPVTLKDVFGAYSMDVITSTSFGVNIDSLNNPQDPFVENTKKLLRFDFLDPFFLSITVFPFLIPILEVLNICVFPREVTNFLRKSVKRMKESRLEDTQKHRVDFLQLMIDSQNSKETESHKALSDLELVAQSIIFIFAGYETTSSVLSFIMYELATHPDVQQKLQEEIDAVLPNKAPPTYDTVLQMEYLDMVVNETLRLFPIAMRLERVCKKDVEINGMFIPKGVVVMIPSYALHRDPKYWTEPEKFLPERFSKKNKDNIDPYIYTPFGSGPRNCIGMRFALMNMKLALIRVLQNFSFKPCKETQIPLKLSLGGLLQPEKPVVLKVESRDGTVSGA
Description: The inhibitory activity of compounds on human CYP3A4 enzyme was detected using a VIVID™ CYP3A4 GREEN SCRNING KIT reagent kit. The Vivid™ CYP450 screening kit includes a Vivid™ substrate, Vivid™ fluorescence standard, reaction buffer, Vivid™ regeneration system, NADP+ and CYP450 BACULOSOMES™ Plus reagent. Operations were performed following the instructions, and a blank control group was set up without adding any compounds.

A word on the IC50: it is the point on the concentration scale where inhibition reaches its midpoint.

The molecule `CC(C)c1ccccc1[C@@H]1CCCN1C1CC2(CCN(c3cc(Oc4cnc5[nH]ccc5c4)c(C(=O)NS(=O)(=O)c4cc([N+](=O)[O-])c(NCC5(F)CCN(C6COC6)CC5)c5c4ncn5C)cc3F)CC2)C1` [US20250034135, Compound 036] came in with an IC50 in data set [1] of less than 10 nM. Still for that read-out and setting: the same measure for `CC(C)c1ccccc1[C@@H]1CN(Cc2c(F)cccc2F)CCN1C1CC2(CCN(c3cc(Oc4cnc5[nH]ccc5c4)c(C(=O)NS(=O)(=O)c4ccc(NCC5(F)CCOCC5)c([N+](=O)[O-])c4)cc3F)CC2)C1` [US20250034135, Compound 192]: less than 10 nM. As for `COc1ccc(CN2CCN(C3CC4(C3)CN(c3cc(Oc5cnc6[nH]ccc6c5)c(C(=O)NS(=O)(=O)c5ccc(NCC6(F)CCN(C7COC7)CC6)c([N+](=O)[O-])c5)cc3F)C4)C(c3ccccc3C(C)C)C2)cc1` (stereo unspecified) [US20250034135, Compound 058], the IC50 in data set [2] was less than 10 nM; in data set [3], greater than 1000 nM.

In the case of `CC(C)c1ccccc1[C@@H]1CN(Cc2ccccc2F)CCN1C1CC2(CCN(c3cc(Oc4cnc5[nH]ccc5c4)c(C(=O)NS(=O)(=O)c4ccc(NCC5(F)CCOCC5)c([N+](=O)[O-])c4)cc3F)CC2)C1` [US20250034135, Compound 187], the IC50 in data set [1] was less than 10 nM; in data set [3] it was greater than 500 nM. `CC(C)c1ccccc1[C@@H]1CCCN1C1CC2(CCN(c3cc(Oc4cnc5[nH]cc(F)c5c4)c(C(=O)NS(=O)(=O)c4cc([N+](=O)[O-])c(NCC5(F)CCN(C6COC6)CC5)c5[nH]cnc45)cc3F)CC2)C1` [US20250034135, Compound 038] yielded an IC50 in data set [1] of less than 10 nM. The same measure, in the same setting: the same measure for `COc1ccc(CN2CCN(C3CC4(CCN(c5cc(Oc6cnc7[nH]ccc7c6)c(C(=O)NS(=O)(=O)c6ccc(NCC7(F)CCN(C8COC8)CC7)c([N+](=O)[O-])c6)cc5F)CC4)C3)C(c3ccccc3C(C)C)C2)cc1` (stereo unspecified) [US20250034135, Compound 057]: less than 10 nM; for `CC(C)c1ccccc1[C@@H]1CCCN1C1CC2(CCN(c3cc(Oc4cnc5[nH]ccc5c4)c(C(=O)NS(=O)(=O)c4cc([N+](=O)[O-])c(NCC5(F)CCN(C6COC6)CC5)c5[nH]cnc45)cc3F)CC2)C1` [US20250034135, Compound 020]: less than 10 nM. In the case of `CC(C)c1ccccc1[C@@H]1CN(Cc2cnn(C)c2)CCN1C1CC2(CCN(c3cc(Oc4cnc5[nH]ccc5c4)c(C(=O)NS(=O)(=O)c4ccc(NC[C@H]5CC[C@](C)(O)CC5)c([N+](=O)[O-])c4)cc3F)CC2)C1` [US20250034135, Compound 238], the IC50 in data set [3] was greater than 500 nM. In the case of `CC(C)c1ccccc1[C@@H]1CCCN1C1CC2(CCN(c3ccc(C(=O)NS(=O)(=O)c4cc([N+](=O)[O-])c(NCC5(F)CCN(C6COC6)CC5)c5[nH]cnc45)c(Oc4cnc5[nH]cc(F)c5c4)c3)CC2)C1` [US20250034135, Compound 012], the IC50 in data set [1] is less than 10 nM. As to `COc1ccccc1CN1CCN(C2CC3(CCN(c4cc(Oc5cnc6[nH]ccc6c5)c(C(=O)NS(=O)(=O)c5ccc(NCC6(F)CCOCC6)c([N+](=O)[O-])c5)cc4F)CC3)C2)[C@H](c2ccccc2C(C)C)C1` [US20250034135, Compound 185], the IC50 was less than 10 nM in data set [1] and greater than 500 nM in data set [3]. Take `COc1ccc(CN2CCN(C3CC4(CCN(c5ccc(C(=O)NS(=O)(=O)c6ccc(NC[C@H]7CC[C@](C)(O)CC7)c([N+](=O)[O-])c6)c(OC(C=N)Cc6cc[nH]c6)c5)CC4)C3)[C@H](c3ccccc3C(C)C)C2)cc1` (stereo partly specified) [US20250034135, Compound a]: the half-maximal inhibitory concentration (IC50) in data set [4] was 2550 nM. `CC(C)c1ccccc1[C@@H]1CN(Cc2ccc(F)cc2F)CCN1C1CC2(CCN(c3cc(Oc4cnc5[nH]ccc5c4)c(C(=O)NS(=O)(=O)c4ccc(NCC5(F)CCOCC5)c([N+](=O)[O-])c4)cc3F)CC2)C1` [US20250034135, Compound 191] displayed an IC50 in data set [1] of less than 10 nM. `CC(C)c1ccccc1[C@@H]1CCCN1C1CC2(CCN(c3ccc(C(=O)NS(=O)(=O)c4cc([N+](=O)[O-])c(NCC5(F)CCN(C(C)C)CC5)c5c4ncn5C)c(Oc4cnc5[nH]ccc5c4)c3)CC2)C1` [US20250034135, Compound 008] gave an IC50 in data set [1] of less than 10 nM.
